Data from US20260007133A1, “HERBICIDAL COMPOSITION COMPRISING AZINE COMPOUNDS” (BASF SE, priority 2022, published 2026).

Tests used:
Format in all cases: in vivo
Alopecurus myosuroides = test: Greenhouse pre-emergence (PRE) herbicidal test on ALOMY; conditions: PRE, ALOMY, 20 DAT
How it was run: (§1)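 Seeds were sown per species in pots of loamy sand with about 3.0% humus, treated pre-emergence, watered and hooded until rooted. Plants grew at 10-25° C or 20-35° C depending on species. Damage was scored 0-100 (100 = no emergence or above-ground parts destroyed) at 20 DAT.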

Geranium pusillum = test: Greenhouse pre-emergence (PRE) herbicidal test on GERPU; conditions: PRE, GERPU, 20 DAT
From the text: The culture containers used were plastic pots containing loamy sand with approximately 3.0% of humus as substrate. The seeds of the test plants were sown separately for each species.
For the pre-emergence treatment, the active compounds, suspended or emulsified in water, were applied directly after sowing by means of finely distributing nozzles. The containers were irrigated gently to promote germination and growth and subsequently covered with transparent plastic hoods until the plants had rooted. This cover caused uniform germination of the test plants unless this was adversely affected by the active compounds.
Depending on the species, the plants were kept at 10-25° C. and 20-35° C., respectively.
The test period extended over 2 to 4 weeks. During this time, the plants were tended and their response to the individual treatments was evaluated.
Evaluation was carried out using a scale from 0 to 100. 100 means no emergence of the plants, or complete destruction of at least the above-ground parts, and 0 means no damage or normal course of growth. A good herbicidal activity is given at values of at least 70, and very good herbicidal activity is given at values of at least 85.
If not stated differently, the respective components A and B, and if appropriate, C were formulated as a 5% by weight strength emulsion concentrate and, with addition of the amount of solvent system, introduced into the spray liquor used for applying the active compound.
As indicated application was either post emergent (POST) at the respective growth stage (GS) of the weed (BBCH code), or pre-emergent (PRE).
Assessment was 20 days after treatment (DAT).

Commelina benghalensis = test: Greenhouse pre-emergence (PRE) herbicidal test on COMBE; conditions: PRE, 20 DAT
How it was run: as §1

Amaranthus retroflexus [1] = test: Greenhouse post-emergence (POST) herbicidal test on AMARE; conditions: POST, 20 DAT; for % activity solo application: AMARE
How it was run: (§2)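 Weeds grown in loamy sand (~3.0% humus) to 3–15 cm were sprayed post-emergence with compounds suspended or emulsified in water, formulated as 5% emulsion concentrates. Plants were kept at 10-25 °C or 20-35 °C by species. Damage was scored 0–100 (100 = complete destruction) at 20 DAT.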

AMAPA = test: Greenhouse pre-emergence (PRE) herbicidal test on AMAPA
Abutilon theophrasti [2] = test: Greenhouse pre-emergence (PRE) herbicidal test on ABUTH; conditions: PRE; for % activity solo application: ABUTH, 20 DAT
How it was run: as §1

Amaranthus retroflexus [3] = test: Greenhouse pre-emergence (PRE) herbicidal test on AMARE; conditions: PRE, AMARE, 20 DAT
How it was run: as §1

Ambrosia artemisiifolia = test: Greenhouse pre-emergence (PRE) herbicidal test on AMBEL; conditions: PRE; for % activity solo application: AMBEL, 20 DAT; for % activity: 10 DAT
Echinochloa crus-galli = test: Greenhouse pre-emergence (PRE) herbicidal test on ECHCG; conditions: PRE; for % activity solo application: ECHCG, 20 DAT; for % activity: 10 DAT
Euphorbia heterophylla [4] = test: Greenhouse pre-emergence (PRE) herbicidal test on EPHHL; conditions: PRE, EPHHL, 20 DAT
How it was run: as §1

Lolium multiflorum = test: Greenhouse pre-emergence (PRE) herbicidal test on LOLMU; conditions: PRE, LOLMU, 20 DAT
How it was run: as §1

Setaria viridis = test: Greenhouse pre-emergence (PRE) herbicidal test on SETVI; conditions: PRE, SETVI, 20 DAT
How it was run: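 Seeds sown per species in pots of loamy sand with approx. 3.0% humus; compounds suspended or emulsified in water were sprayed via fine nozzles directly after sowing. Pots were watered and hooded until rooted, held at 10-25° C. or 20-35° C. by species, and scored 0–100 (100 = no emergence/complete destruction) 20 DAT.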

Abutilon theophrasti [5] = test: Greenhouse post-emergence (POST) herbicidal test on ABUTH; conditions: POST, ABUTH, 20 DAT
How it was run: as §2

Digitaria sanguinalis = test: Greenhouse post-emergence (POST) herbicidal test on DIGSA; conditions: POST, DIGSA, 20 DAT
How it was run: as §2

Euphorbia heterophylla [6] = test: Greenhouse post-emergence (POST) herbicidal test on EPHHL; conditions: POST, EPHHL, 20 DAT
How it was run: as §2

Ipomoea hederacea = test: Greenhouse post-emergence (POST) herbicidal test on IPOHE; conditions: POST, IPOHE, 20 DAT
How it was run: as §2

O=C(Nc1ccc(F)cc1)c1cccc(Oc2cccc(C(F)(F)F)c2)n1 [Picolinafen, picolinafen]
% activity (Alopecurus myosuroides; use rate 50 gai/ha): 25% | % activity (Geranium pusillum; use rate 50 gai/ha): 15% | % activity (Geranium pusillum; use rate 100 gai/ha): 40%

O=C(O)c1c(Cl)ccc2cc(Cl)cnc12 [Quinclorac, quinclorac]
inhibition at 500 g/ha (Commelina benghalensis; Commelina benghalensis, pre-emergence, 480 h, use rate 500 gai/ha): 65% | inhibition at 125 g/ha (Amaranthus retroflexus [1]; Amaranthus retroflexus, post-emergence, 480 h, use rate 125 gai/ha): 50% | inhibition at 62.5 g/ha (AMAPA; pre-emergence, 480 h, use rate 62.5 gai/ha, 20 DAT): 60% | inhibition at 125 g/ha (AMAPA; pre-emergence, 480 h, use rate 125 gai/ha, 20 DAT): 65% | inhibition at 250 g/ha (AMAPA; pre-emergence, 480 h, use rate 250 gai/ha, 20 DAT): 65% | inhibition at 500 g/ha (AMAPA; pre-emergence, 480 h, use rate 500 gai/ha, 20 DAT): 70%

CCc1cccc(C)c1N(C(=O)CCl)[C@@H](C)COC [S-Metolachlor, S-metolachlor]
% activity solo application (Abutilon theophrasti [2]; 25 gai/ha): 0% | % activity solo application (Abutilon theophrasti [2]; 50 gai/ha): 0% | % activity solo application (Alopecurus myosuroides; 25 gai/ha): 0% | % activity solo application (Alopecurus myosuroides; 50 gai/ha): 0% | % activity solo application (Amaranthus retroflexus [3]; 25 gai/ha): 20% | % activity solo application (Amaranthus retroflexus [3]; 50 gai/ha): 20% | % activity solo application (Ambrosia artemisiifolia; 25 gai/ha): 0% | % activity solo application (Ambrosia artemisiifolia; 50 gai/ha): 0% | % activity solo application (Commelina benghalensis; COMBE, 25 gai/ha): 10% | % activity solo application (Echinochloa crus-galli; 25 gai/ha): 20% | % activity solo application (Echinochloa crus-galli; 50 gai/ha): 50% | % activity solo application (Euphorbia heterophylla [4]; 25 gai/ha): 0% | % activity solo application (Euphorbia heterophylla [4]; 50 gai/ha): 0% | % activity solo application (Lolium multiflorum; 25 gai/ha): 0% | % activity solo application (Lolium multiflorum; 50 gai/ha): 0% | % activity solo application (Setaria viridis; 25 gai/ha): 10% | % activity solo application (Setaria viridis; 50 gai/ha): 75% | % activity solo application (Abutilon theophrasti [5]; 25 gai/ha): 0% | % activity solo application (Abutilon theophrasti [5]; 50 gai/ha): 0% | % activity solo application (Amaranthus retroflexus [1]; 25 gai/ha): 5% | % activity solo application (Amaranthus retroflexus [1]; 50 gai/ha): 60% | % activity solo application (Digitaria sanguinalis; 25 gai/ha): 0% | % activity solo application (Digitaria sanguinalis; 50 gai/ha): 10% | % activity solo application (Euphorbia heterophylla [6]; 25 gai/ha): 0% | % activity solo application (Euphorbia heterophylla [6]; 50 gai/ha): 5% | % activity solo application (Ipomoea hederacea; 25 gai/ha): 0% | % activity solo application (Ipomoea hederacea; 50 gai/ha): 0%

icafolin
% activity (Abutilon theophrasti [2]; use rate 12.5 gai/ha, 10 DAT): 20% | % activity (Ambrosia artemisiifolia; use rate 25 gai/ha): 10% | % activity (Ambrosia artemisiifolia; use rate 50 gai/ha): 15% | % activity (Echinochloa crus-galli; use rate 12.5 gai/ha): 25% | % activity (Echinochloa crus-galli; use rate 50 gai/ha): 30% | % activity (AMAPA; use rate 25 gai/ha, 10 DAT): 10%
